Results reported in US12544395B2, “Combination compositions comprising a beta-lactamase inhibitor and uses thereof” (priority 2018, dated 2026).

Legend:
Assay type in all cases: cell-based
[1] = system: E. coli SI-NO36; test: Broth microdilution MIC (strain enzymes: SHV-11, TEM-1); conditions: Escherichia coli, SINO36; alone; read-out: MIC of cefixime (CFM)
[2] = system: E. coli SI-M004; test: Broth microdilution MIC (strain enzymes: SHV-2, GES-12); conditions: Escherichia coli, SIM004; alone; read-out: MIC of cefixime (CFM)
[3] = system: K. pneumoniae SI-KP NO30; test: Broth microdilution MIC (strain enzymes: TEM-26b, SHV-60, SHV-26); conditions: Klebsiella pneumoniae, SIKPNO30; alone; read-out: MIC of cefixime (CFM)
[4] = system: E. coli ESBL 4; test: Broth microdilution MIC (strain enzymes: CTX-M15, TEM-1); conditions: Escherichia coli, ESBL4; alone; read-out: MIC of cefixime (CFM)
[5] = system: E. coli 3174; test: Broth microdilution MIC (strain enzymes: TEM-1, CTXM-15); conditions: Escherichia coli, 3174; alone; read-out: MIC of cefixime (CFM)
[6] = system: E. coli BAS 1; test: Broth microdilution MIC (strain enzymes: none detected); conditions: Escherichia coli, BAS1; alone; read-out: MIC of cefixime (CFM)
[7] = system: K. oxytoca 176877; test: Broth microdilution MIC (strain enzymes: SHV-105); conditions: Klebsiella oxytoca, 176877; alone; read-out: MIC of cefixime (CFM)
[8] = system: K. pneumoniae ESBL 8 #1; test: Broth microdilution MIC (strain enzymes: TEM-1, SHV-12); conditions: Klebsiella pneumoniae; alone; read-out: MIC of cefixime (CFM)
[9] = system: K. pneumoniae KPN 508; test: Broth microdilution MIC (strain enzymes: SHV-7, TEM-1); conditions: Klebsiella pneumoniae, KPN508; alone; read-out: MIC of cefixime (CFM)
[10] = system: K. pneumoniae 3151; test: Broth microdilution MIC (strain enzymes: SHV-12, TEM-1); conditions: Klebsiella pneumoniae, 3151; alone; read-out: MIC of cefixime (CFM)
[11] = system: E. coli 3327; test: Broth microdilution MIC (strain enzymes: TEM-1, SHV-12); conditions: Escherichia coli, 3327; alone; read-out: MIC of cefixime (CFM)
[12] = system: E. coli SI-LP377; test: microbe, parasite or virus in culture; conditions: Escherichia coli, SILP377, read-out: MIC of cefixime (CFM)
[13] = system: K. pneumoniae ESBL 7 #1; test: Broth microdilution MIC (strain enzymes: SHV-12, TEM-1); conditions: Klebsiella pneumoniae; alone; read-out: MIC of cefixime (CFM)
[14] = system: K. pneumoniae BAA 1705; test: Broth microdilution MIC (strain KPC-producing); conditions: Klebsiella pneumoniae, BAA1705; alone; read-out: MIC of cefixime (CFM)
[15] = system: K. pneumoniae ESBL 8 #2; test: Broth microdilution MIC (strain enzymes: SHV-12, TEM-1); conditions: Klebsiella pneumoniae; alone; read-out: MIC of cefixime (CFM)
[16] = system: E. coli 2150; test: Broth microdilution MIC (strain enzymes: SHV-3, TEM-1); conditions: Escherichia coli, 2150; alone; read-out: MIC of cefixime (CFM)
[17] = system: K. pneumoniae 319478; test: Broth microdilution MIC (strain enzymes: SHV-12, CTX-M3 and TEM-1); conditions: Klebsiella pneumoniae, 319478; alone; read-out: MIC of cefixime (CFM)
[18] = system: E. coli ESBL 5; test: Broth microdilution MIC (strain enzymes: CTX-M15, TEM-1); conditions: Escherichia coli, ESBL5; alone; read-out: MIC of cefixime (CFM)
[19] = system: E. coli 2806; test: Broth microdilution MIC (strain enzymes: SHV-12, TEM-1); conditions: Escherichia coli, 2806; alone; read-out: MIC of cefixime (CFM)
[20] = system: K. pneumoniae KP 3; test: Broth microdilution MIC (strain enzymes: SHV-1, TEM-1); conditions: Klebsiella pneumoniae, KP3; alone; read-out: MIC of cefixime (CFM)
[21] = system: K. pneumoniae 329633; test: Broth microdilution MIC (strain enzymes: SHV-5, TEM-1); conditions: Klebsiella pneumoniae, 329633; alone; read-out: MIC of cefixime (CFM)
[22] = system: panel of ESBL-producing Enterobacteriaceae (40 strains); test: Broth microdilution MIC50/MIC90 summary over the panel
[23] = system: K. pneumoniae 153239; test: Broth microdilution MIC (strain enzymes: SHV-11, TEM-1); conditions: Klebsiella pneumoniae, 153239; alone; read-out: MIC of cefixime (CFM)
[24] = system: K. oxytoca 169219; test: Broth microdilution MIC (strain enzymes: TEM-1, CTXM-15); conditions: Klebsiella oxytoca, 169219; alone; read-out: MIC of cefixime (CFM)
[25] = system: E. coli 1924; test: Broth microdilution MIC (strain enzymes: TEM-12); conditions: Escherichia coli, 1924; alone; read-out: MIC of cefixime (CFM)
[26] = system: K. pneumoniae ESBL 10; test: Broth microdilution MIC (strain enzymes: SHV-12, TEM-1); conditions: Klebsiella pneumoniae, ESBL10; alone; read-out: MIC of cefixime (CFM)
[27] = system: E. coli SI-AIRT-4; test: Broth microdilution MIC (strain enzymes: TEM-1); conditions: Escherichia coli, SIAIRT4; alone; read-out: MIC of cefixime (CFM)
[28] = system: K. pneumoniae 115468; test: Broth microdilution MIC (strain enzymes: TEM-1); conditions: Klebsiella pneumoniae, 115468; alone; read-out: MIC of cefixime (CFM)
[29] = system: K. pneumoniae 11/23 LF#2; test: microbe, parasite or virus in culture; conditions: Klebsiella pneumoniae, read-out: MIC of cefixime (CFM)
[30] = system: K. pneumoniae KP 8; test: Broth microdilution MIC (strain enzymes: TEM-10, TEM-1, CTX-M15); conditions: Klebsiella pneumoniae, KP8; alone; read-out: MIC of cefixime (CFM)
[31] = system: E. coli ESBL 2; test: Broth microdilution MIC (strain enzymes: TEM-1); conditions: Escherichia coli, ESBL2; alone; read-out: MIC of cefixime (CFM)
[32] = system: K. pneumoniae KP 4; test: Broth microdilution MIC (strain enzymes: SHV-2a, SHV-5, TEM-1); conditions: Klebsiella pneumoniae, KP4; alone; read-out: MIC of cefixime (CFM)
[33] = system: E. coli 25922; test: Broth microdilution MIC (strain enzymes: None detected); conditions: Escherichia coli, 25922; alone; read-out: MIC of cefixime (CFM)
[34] = system: K. pneumoniae 304487; test: Broth microdilution MIC (strain enzymes: SHV-12,TEM-1); conditions: Klebsiella pneumoniae, 304487; alone; read-out: MIC of cefixime (CFM)
[35] = system: K. pneumoniae KI (KCl); test: Broth microdilution MIC (strain enzymes: TEM-10); conditions: Klebsiella pneumoniae; alone; read-out: MIC of cefixime (CFM)
[36] = system: K. pneumoniae ESBL 7 #2; test: Broth microdilution MIC (strain enzymes: SHV-12, CTX-M15, TEM-1); conditions: Klebsiella pneumoniae; alone; read-out: MIC of cefixime (CFM)
[37] = system: E. coli Si-FDL-GES; test: microbe, parasite or virus in culture; conditions: Escherichia coli, read-out: MIC of cefixime (CFM)
[38] = system: E. coli SI-V502; test: Broth microdilution MIC (strain enzymes: TEM-29, CTX-M15); conditions: Escherichia coli, SIV502; alone; read-out: MIC of cefixime (CFM)
[39] = system: K. pneumoniae 170375; test: Broth microdilution MIC (strain enzymes: SHV-12, CTX-M15 and TEM-1); conditions: Klebsiella pneumoniae, 170375; alone; read-out: MIC of cefixime (CFM)
[40] = system: E. coli SI-PBLII; test: Broth microdilution MIC (strain enzymes: CTX-M2, TEM-1); conditions: Escherichia coli; alone; read-out: MIC of cefixime (CFM)
[41] = system: K. oxytoca 496 #2; test: Broth microdilution MIC (strain enzymes: SHV-105, TEM-1); conditions: Klebsiella oxytoca; alone; read-out: MIC of cefixime (CFM)

With C=CC1=C(C(=O)O)N2C(=O)[C@@H](NC(=O)/C(=N\OCC(=O)O)c3csc(N)n3)[C@H]2SC1 [Cefixime, cefixime, reference compound] the MIC [1] was 1 µg/mL, the MIC [2] was > 32 µg/mL and the MIC [3] was > 32 µg/mL. The MIC [4] was > 32 µg/mL, the MIC [5] was 0.5 µg/mL and the MIC [6] was > 32 µg/mL. The MIC [7] was > 32 µg/mL, the MIC [8] was > 32 µg/mL and the MIC [9] was > 32 µg/mL. The MIC [10] was > 32 µg/mL, the MIC [11] was > 32 µg/mL and the MIC [12] was > 32 µg/mL. For the same molecule, the MIC [13] was > 32 µg/mL, the MIC [14] was > 32 µg/mL and the MIC [15] was > 32 µg/mL. The MIC [16] was > 32 µg/mL, the MIC [17] was > 32 µg/mL and the MIC [18] was > 32 µg/mL. The MIC [19] was 32 µg/mL, the MIC [20] was > 32 µg/mL and the MIC [21] was > 32 µg/mL. The MIC50 ([22]; read-out: Cefixime MIC50) was > 32 µg/mL, the MIC90 ([22]; read-out: Cefixime MIC90) was > 32 µg/mL and the MIC [23] was 0.5 µg/mL. The MIC [24] was > 32 µg/mL, the MIC [25] was 2 µg/mL and the MIC [26] was > 32 µg/mL. The MIC [27] was 0.5 µg/mL, the MIC [28] was > 32 µg/mL and the MIC [29] was > 32 µg/mL. For the same molecule, the MIC [30] was > 32 µg/mL, the MIC [31] was > 32 µg/mL and the MIC [32] was > 32 µg/mL. For the same molecule, the MIC [33] was 1 µg/mL, the MIC [34] was > 32 µg/mL and the MIC [35] was 32 µg/mL. The MIC [36] was > 32 µg/mL, the MIC [37] was 2 µg/mL and the MIC [38] was 2 µg/mL. For the same molecule, the MIC [39] was > 32 µg/mL, the MIC [40] was 1 µg/mL and the MIC [41] was 32 µg/mL.
